The test system of one series is Hs578t tumor. Put plainly: In ovo (CAM) tumor growth model. Format: in vivo, chicken. Conditions: 2xIC50 (DOX concentration), treated at day 13, read at day 17. Here is the method:
(§1) (A) In ovo pictures at day 13 of embryo development and in ovo and ex ovo pictures at day 17; representative images were taken at 20x in a Zeiss stereomicroscope. (B) Graphical representation of tumor growth. Data was analyzed by one-way ANOVA and the results are representative for the mean of at least 15 eggs per group;^∗∗∗p<0.0001 ^∗p<0.05. Hs578t cells were used to establish a TNBC chicken egg model. Fertilized eggs were incubated for 9 days and, at this time, the chicken embryo is surrounded by the CAM which provides nutrients for its development. At day 13 of development, the tumor mass could be visualized and the resulting tumors were treated with 2xlC50 EBR85-functionalized nanoparticles (corresponding to DOX concentration). The same concentration of DOX was used for the group treated with DOX alone. Also, a control group treated with DMEM medium was used to evaluate tumorgrowth. […] As observed in Figure 16, a significant reduction on tumor size could be appreciated for the EBR85-treated group, comparing to the control and DOX-treated groups.

For a further series, the system named is Hs-578T cells. Put plainly: Wound-healing (cell migration) assay. Particulars: at the IC50 DOX concentration, up to 48h. It counts as cell-based. Here is the method: The effect of the functionalized mSLNs AF-2 (EBR85, T-sensitive, +DOX) and AF-3 (EBR89, T-insensitive, -DOX) and reference compound (DOX) on the cell migration capability of Hs-578T cells was assessed through the wound-healing assay. mSLNs (with and without DOX) at the IC50 DOX concentration and equivalent mSLNs were used in the experiment. EBR89 (without DOX) was selected to study the effect of the nanoparticle nature on this tumorigenic feature and evaluate its toxicity. Cell migration and invasion are two hallmarks of cancer correlated to cancer progression and metastasis which correspond to a worse cancer prognosis.
Results are presented as mean ± SD of at least three independent experiments.

The test system of another series is Hs-578T polyspheroids. As to the kind of experiment: 3D polyspheroid growth assay with dual treatment (formulation + AMF). Format: cell-based. Conditions: 2 µM relative to DOX + 1h AMF on days 1, 3 and 5; monitored 19 days. Here is the method: In an embodiment, 3D spheroids were prepared. In a 96-well plate was a hot and sterile solution of 1% agarose added (100 µL) and left to cool for 30 min at 4 °C. Then, the plate was tempered and 20000 cancer cells added to each well in 120 µ L of medium. The plate was centrifugated at 800 G during 30 min to promote the formation of the spheroid. The Spheroids were incubated for one week with a medium change every 3 days, until a small dense Spheroid was formed. These spheroids were used in confocal microscopy, or to form poly-spheroids. […]
In an embodiment, growth assay was performed. […] The polyspheroids were monitored every 2 days before treatments or medium change, using an inverted phase-contrast microscope (Nikon Eclipse TS100, Nikon Corporation, Tokyo, Japan) connected to a digital camera (Nikon, DS-Fi1). […] The images were analyzed with image J and R statistical language, using R-packages imager and EBImage, to determine the area of each polyspheroids treated with each condition for every day analyzed. The growth of the polyspheroids were normalized in regards to their own initial area at the start of the experiment, and calculated as { Growth = 100 × (Area−Area^day1)/(Area^day1) [formula] }. The daily growth was calculated as {Growth^daily=(∑Growth)/(19 days)} [formula] . […]

Another series relates to chick embryo. Put plainly: Toxicity to the embryo in the in ovo model. Conditions: 2xIC50 (DOX concentration), throughout the experiment. Format: in vivo, chicken. The method, then:
as §1

For series [1], the system named is triple negative breast cancer cells (Hs-578T). Put plainly: Resazurine cell viability assay, 2D culture, with or without magnetic hyperthermia. Format: cell-based. Particulars: Homo sapiens. Here is the method: In an embodiment, 2D- cell culture was prepared. Hs-578T and MBA-MB-231 TNBC cell lines (ATCC HTB-126 and ATCC Htb-26, respectively) were grown in Dulbecco's Modified Eagle's Medium (DMEM) supplemented with 10% foetal bovine serum and 1% penicillin/streptomycin. THP-1 peripheral blood monocytes (ATCC TIB-202) were grown in Gibco Roswell Park Memorial Institute (RPMI) medium supplemented with 10% foetal bovine serum and 1% penicillin/streptomycin. All cell lines were incubated at 37 °C in a 5% CO2 atmosphere.
In an embodiment, cell viability was assessed. The Resazurine assay was used to calculate the cell viability. The assay is based on the reduction by living cells of the oxidized blue dye to a pink fluorescent resorufin product. […] The fluorescence of each condition was then read with an Biotek Synergy H1 plate reader, and compared to the controls using the formula {Viability = (Treated cells−blank)/(Untreated cells−blank) × 100 [formula] }. […] For each, the inhibitory concentration 50 (IC50) of each formulation was calculated using the DRC R-package. […] The activity gain (AG) for the different formulations was calculated as {AGF=100×(IC50^(free DOX) −IC50^mSLNP)/(IC50^(free DOX))} [formula] , whilst the AG of the magnetic hyperthermia event was calculated as {AGMH=100×(IC50^noHT −IC50^HT)/(IC50^noHT)} [formula] . […]
(In general: Alamar Blue is a resazurin reagent that responds to reducing activity.)

Data on one compound can be found in patent EP4205768A1, “MAGNETIC SOLID LIPID NANOPARTICLES, METHODS AND USES THEREOF” (priority 2021, dated 2023).

Entries after “also recorded” stand apart in the source; their conditions may differ.

What is called IC50 is the point on the concentration scale where inhibition reaches its midpoint.

With `COc1cccc2c1C(=O)c1c(O)c3c(c(O)c1C2=O)C[C@@](O)(C(=O)CO)C[C@@H]3O[C@H]1C[C@H](N)[C@H](O)[C@H](C)O1` [DOX, Doxorubicin], the “regression in the tumors' area” value with Hs578t tumor worked out at 11%. Moreover, the cell migration capability result with Hs-578T cells is reported as “very low migration capability”. The polyspheroid growth result in the series with Hs-578T polyspheroids was “continued to grow during the first week of treatment; also recorded: slowing down its growth”. In addition, in the series with chick embryo, the “toxicity to the chick embryo” value is “no toxicity”. In addition, the IC50 is 1600 nM in series [1] (72h, without magnetic hyperthermia) and 1520 nM in series [1] (Figure 4C experiment, EBR85 with 1h magnetic hyperthermia then 72 h, free DOX as reference).
